In the NIST ThermoML archive (doi:10.1016/j.fluid.2015.07.030):

Experiment: refractive index (other wavelength) (dimensionless); xn = mol fraction of the nth substance listed
Details: 95.99 kPa, Liquid, Standard Abbe refractometry

OCCOCCOCCO [triethylene glycol] + O
refractive index
Details	Wavelength=404.7 nm	Wavelength=435.8 nm	Wavelength=486.1 nm	Wavelength=546.1 nm	Wavelength=587.6 nm	Wavelength=589.3 nm	Wavelength=632.8 nm	Wavelength=644 nm	Wavelength=706.5 nm
308.15 K, x2 = 0	–	–	–	–	–	–	–	1.44909	1.44737
308.15 K, x2 = 0.1056	–	–	–	–	–	–	–	1.44778	1.44608
308.15 K, x2 = 0.2069	–	–	–	–	–	–	–	1.44621	1.4451
308.15 K, x2 = 0.3104	–	–	–	–	–	–	–	1.44392	1.44202
308.15 K, x2 = 0.4844	–	–	–	–	–	–	–	1.43913	1.43745
308.15 K, x2 = 0.5016	–	–	–	–	–	–	–	1.43819	1.43653
308.15 K, x2 = 0.5952	–	–	–	–	–	–	–	1.43167	1.42998
308.15 K, x2 = 0.6016	–	–	–	–	–	–	–	1.43191	1.43023
308.15 K, x2 = 0.6788	–	–	–	–	–	–	–	1.42543	1.42374
308.15 K, x2 = 0.7835	–	–	–	–	–	–	–	1.41701	1.41536
308.15 K, x2 = 0.8184	–	–	–	–	–	–	–	1.41118	1.40951
308.15 K, x2 = 0.8473	–	–	–	–	–	–	–	1.4049	1.40326
308.15 K, x2 = 0.8719	–	–	–	–	–	–	–	1.39819	1.39653
308.15 K, x2 = 0.8926	–	–	–	–	–	–	–	1.39069	1.38904
308.15 K, x2 = 0.9106	–	–	–	–	–	–	–	1.38534	1.38371
308.15 K, x2 = 0.9254	–	–	–	–	–	–	–	1.37569	1.37409
308.15 K, x2 = 0.9303	–	–	–	–	–	–	–	1.37659	1.37498
308.15 K, x2 = 0.9391	–	–	–	–	–	–	1.37329	1.37297	1.37137
308.15 K, x2 = 0.951	–	–	–	–	–	–	1.36686	1.36654	1.36496
308.15 K, x2 = 0.9599	–	–	–	–	–	–	1.36065	1.36033	1.35875
308.15 K, x2 = 0.9708	–	–	–	–	–	–	1.35307	1.35275	1.35119
308.15 K, x2 = 0.979	–	–	–	–	–	–	1.34835	1.34803	1.34647
308.15 K, x2 = 0.9867	–	–	–	–	–	–	1.34205	1.34175	1.34023
308.15 K, x2 = 0.9936	–	–	–	–	–	–	1.33605	1.33576	1.33425
313.15 K, x2 = 0	1.46216	1.45863	1.45448	1.45106	1.44927	1.4492	1.44766	1.44731	1.44561
313.15 K, x2 = 0.1056	1.46096	1.45744	1.4533	1.4499	1.44812	1.44806	1.44652	1.44616	1.44445
313.15 K, x2 = 0.2069	1.45931	1.45583	1.45169	1.44831	1.44653	1.44647	1.44494	1.44459	1.44288
313.15 K, x2 = 0.3104	1.45682	1.45335	1.44921	1.44581	1.44397	1.44244	1.44209	1.44136	1.4404
313.15 K, x2 = 0.4844	1.45391	1.45049	1.44639	1.44305	1.44124	1.44046	1.43954	1.43899	1.43766
313.15 K, x2 = 0.5016	1.45102	1.44762	1.44358	1.44028	1.43853	1.43847	1.43695	1.43661	1.43492
313.15 K, x2 = 0.5952	1.44431	1.44094	1.43703	1.43376	1.43204	1.43197	1.43049	1.43015	1.42848
313.15 K, x2 = 0.6016	1.44384	1.44387	1.43615	1.43304	1.43132	1.43126	1.43021	1.42952	1.42809
313.15 K, x2 = 0.6788	1.43802	1.43469	1.43086	1.42768	1.42601	1.42559	1.42446	1.42411	1.42243
313.15 K, x2 = 0.7835	1.42903	1.42572	1.42205	1.41893	1.41728	1.41722	1.41578	1.41543	1.41372
313.15 K, x2 = 0.8184	1.42287	1.41965	1.41597	1.41287	1.41125	1.41119	1.40976	1.40942	1.40776
313.15 K, x2 = 0.8473	1.4172	1.41405	1.41039	1.40736	1.40575	1.40569	1.40427	1.40394	1.40231
313.15 K, x2 = 0.8719	1.41026	1.40715	1.40359	1.40061	1.39902	1.39896	1.39756	1.39723	1.39559
313.15 K, x2 = 0.8926	1.40276	1.39972	1.39624	1.39332	1.39177	1.39171	1.39035	1.39002	1.3884
313.15 K, x2 = 0.9106	1.39726	–	1.39088	1.38799	1.38648	1.38642	1.38508	1.38475	1.38313
313.15 K, x2 = 0.9254	1.38778	1.38484	1.38148	1.37865	1.37712	1.37706	1.37569	1.37537	1.37376
313.15 K, x2 = 0.9303	1.38834	1.38538	1.38203	1.3792	1.37769	1.37763	1.37629	1.37596	1.37435
313.15 K, x2 = 0.9391	1.38513	1.38218	1.37884	1.37598	1.37445	1.3744	1.37305	1.37272	1.37112
313.15 K, x2 = 0.951	1.37841	1.37555	1.37228	1.36949	1.36803	1.36794	1.36662	1.3663	1.36471
313.15 K, x2 = 0.9599	1.37093	1.36813	1.36494	1.36219	1.36072	1.36066	1.35936	1.35904	1.35747
313.15 K, x2 = 0.9708	1.36388	1.36116	1.35801	1.35533	1.35388	1.35383	1.35253	1.35221	1.35066
313.15 K, x2 = 0.979	1.35918	1.3565	1.35339	1.35071	1.34929	1.34923	1.34796	1.34764	1.3461
313.15 K, x2 = 0.9867	1.35221	1.34957	1.34651	1.34386	1.34243	1.34238	1.34111	1.34081	1.33932
313.15 K, x2 = 0.9936	1.34633	1.34376	1.34073	1.33811	1.3367	1.33665	1.3354	1.3351	1.33361
